Experiment in all cases: NCI tumour cell line growth inhibition, 48 h
Experiment [1] has as its system SK-OV-3 ovarian.
Experiment [2] relates to RPMI-8226 leukemia.
For experiment [3], the system named is OVCAR-4 ovarian.
Experiment [4] has as its system EKVX NSCLC.
Experiment [5] has as its system HCC-2998 colon.
Experiment [6] relates to OVCAR-5 ovarian.
Experiment [7] deals with NCI-H460 lung.
Experiment [8] concerns CAKI-1 renal.
Experiment [9] has as its system K-562 leukemia.
The subject of experiment [10] is 786-0 renal.

Where “and” joins values, the source holds several entries; their conditions need not be identical. Equal values may be shown once.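 Compound exposure: 48 hours, 5 concentrations, 96-well plates. GI50: concentration for 50% inhibition of growth. TGI marks complete inhibition of growth.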

With `COc1cc2c3c(c4cc(OC)c(OC)cc4c2cc1OC)CN1CCC[C@H]1C3`, the TGI in experiment [1] is 0.172 µM; in [2] it was 0.435 µM and 2.13 µM; in [3], 1.28 µM and 0.392 µM; in [4] it was 0.285 µM and 0.284 µM; in [5], 0.3 µM and 0.656 µM; in experiment [6], 0.681 µM. Moreover, the TGI in experiment [7] was 1.13 µM and 0.825 µM; in experiment [8] it was 0.481 µM and 0.926 µM; in experiment [9], > 10 µM and 19.3 µM; in experiment [10] it was > 10 µM and 2.46 µM. Moreover, the GI50 in experiment [2] is 0.0906 µM and < 0.0175 µM; in experiment [3], 0.0419 µM and < 0.01 µM; in experiment [4], 0.0216 µM and < 0.01 µM; in [5], 0.0356 µM and < 0.01 µM; in [7] it was 0.03 µM and < 0.01 µM; in [10] it was 0.0417 µM and 0.0103 µM.
Consider `Cc1cnc(C(=O)Nc2nc3ccc(S(=O)(=O)Nc4ccc(C(C)(C)C)cc4)cc3[nH]2)cn1`, for which the GI50 is 1.09 µM in [1]; 0.47 µM in [2]; 1.46 µM in [3]; 0.789 µM in [4]; 1.46 µM in [5]; 1.41 µM in [6]. The GI50 was 0.37 µM in [7], 0.544 µM in [8], 0.314 µM in experiment [9] and 0.552 µM in [10]. Moreover, the TGI in [1] was 17.1 µM; in experiment [2], 12.4 µM; in experiment [3] it was 17.3 µM; in experiment [4] it was 14 µM; in experiment [5], 10.7 µM; in experiment [6], 10.7 µM. The TGI came to 2.02 µM in experiment [7], 16.4 µM in experiment [8], 5.71 µM in experiment [9] and 13.7 µM in experiment [10].
On to `CSc1ccc(-c2cn3ccsc3n2)cc1`, for which the GI50 in experiment [1] is 59.7 µM; in experiment [2] it was 9.2 µM; in [3], 9.15 µM; in experiment [4], 36.2 µM; in [5] it was 20.9 µM; in experiment [6], 38.9 µM. Also, the GI50 in experiment [7] is 3.71 µM; in experiment [8] it was 24.9 µM; in [9], 4.85 µM; in experiment [10], 32.3 µM. For the same molecule, the TGI in experiment [1], in [2], in [3], in experiment [4], in [5] and in experiment [6] was above 100 µM throughout. Further, the TGI in [7], in experiment [8], in experiment [9] and in [10] was above 100 µM throughout.
Regarding `COc1cc(C(=O)/C=C/c2c[nH]c3ccccc23)cc(OC)c1OC`, the GI50 in experiment [1] is 0.0438 µM; in [2] it was 0.0319 µM; in [3], 0.684 µM; in experiment [4], 0.0605 µM; in experiment [5] it was 0.0959 µM; in experiment [6], 0.0728 µM. Moreover, the GI50 was below 0.0191 µM in [7], below 0.0193 µM in experiment [8], below 0.01 µM in experiment [9] and below 0.0223 µM in experiment [10]. Further, the TGI in experiment [1] was 31.1 µM; in experiment [2] it was 2.82 µM; in experiment [3], 43.1 µM; in experiment [4] it was above 100 µM; in experiment [5], 7.59 µM; in [6], above 100 µM. Further, the TGI was 2.17 µM in [7], 29.8 µM in experiment [8], 12.5 µM in experiment [9] and above 33.9 µM in experiment [10].
For `CNC(=O)c1sc(-n2cnc3cc(OC)c(OC)cc32)cc1OCc1ccccc1C(F)(F)F`, the GI50 in experiment [1], in [2], in [3], in experiment [4], in experiment [5] and in [6] was above 25 µM each time. Moreover, the GI50 in experiment [7], in [8], in experiment [9] and in experiment [10] was above 25 µM in each case. Also, the TGI in experiment [1], in [2], in experiment [3], in [4], in experiment [5] and in [6] was above 25 µM throughout. In addition, the TGI in experiment [7], in experiment [8], in [9] and in experiment [10] was above 25 µM in each case.
Regarding `COC(=O)c1sc(-n2cnc3cc(OC)c(OC)cc32)cc1OCc1ccccc1C(F)(F)F`, the GI50 in [1] is above 21.5 µM; in experiment [2], above 25 µM; in [3], above 25 µM; in experiment [4], above 25 µM; in experiment [5], above 25 µM; in experiment [6] it was above 25 µM. Further, the GI50 was 18.7 µM in experiment [7], above 25 µM in experiment [8], above 25 µM in [9] and 10.8 µM in [10]. In addition, the TGI in experiment [1], in experiment [2], in experiment [3], in experiment [4], in experiment [5] and in [6] was above 25 µM in each case. Further, the TGI in [7], in experiment [8], in [9] and in [10] was above 25 µM in each case.
Turning to `O=C(O)CN(CCN(CC(=O)O)CC(=O)O)CC(=O)O.[Cu+2].[Na+]`, the GI50 in experiment [1] is 23.5 µM; in experiment [2], above 100 µM; in experiment [3] it was above 100 µM; in experiment [4], above 100 µM; in experiment [5] it was above 100 µM; in experiment [6], above 100 µM. Besides, the GI50 in [7], in experiment [8], in experiment [9] and in experiment [10] was above 100 µM each time. Further, the TGI in experiment [1] is 65.2 µM; in [2] it was above 100 µM; in experiment [3], above 100 µM; in experiment [4], above 100 µM; in [5], above 100 µM; in experiment [6], above 100 µM. The TGI in experiment [7], in [8], in experiment [9] and in experiment [10] was above 100 µM each time.

(Values after PubChem BioAssay (NCI).)
